According to ChEMBL document CHEMBL4043253, “Synthesis of novel vitamin K derivatives with alkylated phenyl groups introduced at the ω-terminal side chain and evaluation of their neural differentiation activities” (Bioorg Med Chem Lett, 2017):
The source made the active and inactive calls. The rule behind the calls is not given here.

Key:
PC-12 [1] = assay: Cytotoxicity against rat PC12 cells by MTT assay; assay type: cell-based
PC-12 [2] = assay: Induction of neurite elongation in rat PC12 cells assessed as […] mRNA expression at 1 uM; assay type: functional, cell-based
Neural stem cell [3] = assay: Induction of neuronal differentiation in C57BL/6J mouse neural stem cells assessed as Map2 mRNA expression at 1 uM measured after 4 days by RT-PCR analysis; assay type: functional, cell-based
Neural stem cell [4] = assay: Induction of neuronal differentiation in C57BL/6J mouse neural stem cells assessed as expression of Map2 at 1 uM administered every 2 days for 4 days by CF594/DAPI immunostaining based fluorescence microscopic microscopic analysis; assay type: functional

SMILES | Activity (PC-12 [1]) | Activity (PC-12 [2]) | Activity (Neural stem cell [3]) | Activity (Neural stem cell [4])
CC(C)=CCC/C(C)=C/CC/C(C)=C/CC/C(C)=C/CC1=C(C)C(=O)c2ccccc2C1=O [MENATETRENONE] | Non-Toxic | inactive | Active | 
CC1=C(C/C=C(\C)CC/C=C(\C)Cc2cccc(C(C)(C)C)c2)C(=O)c2ccccc2C1=O | Non-Toxic |  | Active | Active
CC1=C(C/C=C(\C)CC/C=C(\C)Cc2ccc(C)c(C)c2)C(=O)c2ccccc2C1=O | Non-Toxic |  | Active | inactive
CC1=C(C/C=C(\C)CC/C=C(\C)CC/C=C(\C)Cc2c(C)cc(C)cc2C)C(=O)c2ccccc2C1=O | Non-Toxic |  |  | 
CC1=C(C/C=C(\C)CC/C=C(\C)CC/C=C(\C)Cc2cc(C)cc(C)c2)C(=O)c2ccccc2C1=O | Non-Toxic |  |  | 
CC1=C(C/C=C(\C)CC/C=C(\C)CC/C=C(\C)Cc2cccc(C)c2C)C(=O)c2ccccc2C1=O | Non-Toxic |  |  | 
CC1=C(C/C=C(\C)CC/C=C(\C)Cc2ccc(C)cc2C)C(=O)c2ccccc2C1=O | Non-Toxic |  |  | 
CC1=C(C/C=C(\C)CC/C=C(\C)Cc2cc(C)cc(C)c2)C(=O)c2ccccc2C1=O | Non-Toxic |  |  | 
CC1=C(C/C=C(\C)CC/C=C(\C)CC/C=C(\C)Cc2ccc(C)cc2C)C(=O)c2ccccc2C1=O | Non-Toxic |  |  | 
CC1=C(C/C=C(\C)CC/C=C(\C)CC/C=C(\C)Cc2ccc(C)c(C)c2)C(=O)c2ccccc2C1=O | Non-Toxic |  |  | 
CC1=C(C/C=C(\C)CC/C=C(\C)Cc2cccc(C)c2C)C(=O)c2ccccc2C1=O | Non-Toxic |  | Active | inactive
CC1=C(C/C=C(\C)CC/C=C(\C)CC/C=C(\C)Cc2cccc(C(C)(C)C)c2)C(=O)c2ccccc2C1=O | Non-Toxic |  | Active | Active
CC1=C(C/C=C(\C)CC/C=C(\C)Cc2c(C)cc(C)cc2C)C(=O)c2ccccc2C1=O | Non-Toxic |  |  | 
